Measured values from US12453708B2, “Aminonaphthoquinone compounds for treatment and/or prevention of fibrosis diseases” (CALGENT BIOTECHNOLOGY CO., LTD., priority 2015, dated 2025).

Columns and labels:
[1] = tested on: TGF-β-induced α-SMA expression in WI-38 cells; experiment: TGF-β-induced α-SMA expression in WI-38 cells (Western blot); assay type: cell-based, human; conditions: WI-38 lung fibroblasts, 0.3, 1, 3 or 10 μM for 30 min before and during incubation with TGF-β (10 ng/mL)
Experimental: FIGS. 5 (A) and (B) show the effect of L056 on TGF-β-induced α-SMA expression in WI-38 cells. WI-38 lung fibroblasts were incubated with different concentrations of L056 (0.3, 1, 3 or 10 μM) for 30 min before and during incubation for 2 h with TGF-β (10 ng/mL). […] (A), Western blot plot; (B), Quantitative assay of Western blot WI-38 cells, a normal human embryonic lung fibroblast cell line, were obtained from American Type Culture Collection (Manassas, VA). Cells were grown in MEM nutrient mixture, containing 10% FCS, 2 mM L-glutamine, 0.1 mM NEAA, 1 mM sodium pyruvate, 50 U/ml penicillin G, and 100 µg/ml streptomycin, in a humidified 37° C. incubator with 5% CO2 Cells were used between passages 18 and 30 for all experiments. After reaching confluence, cells were seeded onto 6-cm dishes for immunoblotting. Western blot analyses were performed as described previously (Chen B C, Chang Y S, Kang J C, Hsu M J, Sheu J R, Chen T L, et al. Peptidoglycan induces nuclear factor-kappaB activation and cyclooxygenase-2 expression via Ras, Raf-1, and ERK in RAW 264.7 macrophages. J Biol Chem 2004; 279:20889-97). […] The immunoreactivity was detected using enhanced chemiluminescence (ECL) following the manufacturer's instructions. Quantitative data were obtained using a computing densitometer with scientific imaging systems (Kodak, Rochester, NY). […]

[2] = tested on: BLM-induced lung fibrosis in mice; experiment: Bleomycin (BLM)-induced lung fibrosis mice model; assay type: in vivo, C57BL/6JNarl mice; conditions: for fibrosis score, Mean ± SEM: H&E histology day 39
Experimental: FIGS. 8 (A) and (B) show the effect of L056 effect on fibrosis score of BLM-induced lung fibrosis in mice. C57BL/6 mice (8 weeks) were treated with bleomycin (BLM, 0.05 U/50 μl) or PBS (50 μl) by endotracheal administration. […] On day 39, the mice were sacrificed and, the histologic analysis of lung tissue was performed by hematoxylin-eosin (H&E) staining (original magnification, x100). […] (A), Histology fibrosis score plot; (B), H&E staining plot.
FIG. 9 (A) to (D) show the inhibitory effects on pro-fibrogenic mediators, collagen, CTGF, fibronectin and […], respectively. (A), H&E staining plot for collagen; (B), H&E staining plot for CTGF; (C), H&E staining plot for fibronectin; (D), H&E staining plot for α-SMA.
C57BL/6JNarl mice (8 weeks) were treated with bleomycin (BLM, 0.05 U/50 μl) or PBS (50 μl) by endotracheal administration. […] On day 39, the mice were sacrificed, and the histologic analysis of lung tissue was performed by hematoxylin-eosin (H&E) staining (original magnification, x100).

[3] = tested on: CCl4-induced liver fibrosis in mice; experiment: CCl4-induced liver fibrosis in mice (therapeutic model); assay type: in vivo, C57BL/6JNarl mice; conditions: for fibrosis score, Mean ± SEM: day 43
Experimental: (A) sirius red stain; (B), the inhibition of MPTOL056 on CCl4-induced liver fibrosis. […] C57BL/6JNarl mice (8 weeks) were treated with CCl4 (1 μl/μg/BW, q.w.) or PBS (1 μl/μg/BW, q.w.) by i.p. injection for 6 weeks. MPTOL056 (25, 50 and 100 mg/kg/day, q.d.) and silymarin (200 mg/kg/day, q.d.) were administered orally to CCl4-injected mice from 2 weeks to 6 weeks. On day 43, the mice were sacrificed, and the α-SMA analysis of liver tissue was performed by IHC staining (original magnification, x100) (see FIG. 11). […]

[4] = BLM mice, 25 mg (mg/kg/day, q.d., oral, days 10 to 38)
[5] = BLM mice, 50 mg (mg/kg/day, q.d., oral, days 10 to 38)
[6] = BLM mice, 100 mg (mg/kg/day, q.d., oral, days 10 to 38)
[7] = CCl4 mice, 25 mg (mg/kg/day, q.d., oral, weeks 2 to 6)
[8] = CCl4 mice, 50 mg (mg/kg/day, q.d., oral, weeks 2 to 6)
[9] = CCl4 mice, 100 mg (mg/kg/day, q.d., oral, weeks 2 to 6)

O=C(Nc1ccncc1)c1ccc(CNC2=C(Cl)C(=O)c3ccccc3C2=O)cc1 [Example L056, 4-(((3-chloro-1,4-dioxo-1,4-dihydronaphthalen-2-yl)amino)methyl)-N-(pyridin-4-yl)benzamide]
TGF-β-induced α-SMA expression [1]: significantly inhibited
Efficacy % (reduction of fibrosis score) [2, 4]: 50.94%
fibrosis score, Mean ± SEM [2, 4]: 3.27 ± 0.03
Efficacy % (reduction of fibrosis score) [2, 5]: 83.90%
fibrosis score, Mean ± SEM [2, 5]: 2.03 ± 0.21
Efficacy % (reduction of fibrosis score) [2, 6]: 67.38%
fibrosis score, Mean ± SEM [2, 6]: 2.65 ± 0.17
efficacy in the inhibition compared with PBS control ([2]; BLM mice, FIG. 8(B)): significantly higher than the PBS control
pro-fibrogenic mediators expression (collagen, CTGF, fibronectin, α-SMA) in lung ([2]; bleomycin-induced mice lung fibrosis model, FIG. 9): inhibited
inhibition of BLM-induced lung fibrosis (in words) ([2]; mice, 25, 50, 100 mg/kg/day oral, FIG. 8(A)): inhibits BLM-induced lung fibrosis in a dose-dependent manner
Efficacy % (reduction of fibrosis score) [3, 7]: 45.00%
fibrosis score, Mean ± SEM [3, 7]: 2.40 ± 0.53
Efficacy % (reduction of fibrosis score) [3, 8]: 46.67%
fibrosis score, Mean ± SEM [3, 8]: 2.35 ± 0.25
Efficacy % (reduction of fibrosis score) [3, 9]: 68.33%
fibrosis score, Mean ± SEM [3, 9]: 1.70 ± 0.18
efficacy in inhibition compared with silymarin ([3]; CCl4 mice, silymarin 200 mg/kg/day, FIG. 10(B)): higher than silymarin
inhibition of CCl4-induced liver fibrosis (in words) ([3]; mice, 25, 50 and 100 mg/kg/day oral, FIG. 10(B)): dose-dependent
